Entries after “also recorded” stand apart in the source; their conditions may differ.
Assays:
[1] = test system: Alu RNA-induced RPE degeneration; assay: Alu RNA-induced RPE degeneration in mice (ZO-1 stained RPE flat mounts); assay type: in vivo, C57BL/6J mice
Protocol: C57BL/6J mice (The Jackson Laboratory) were anesthetized with ketamine hydrochloride and xylazine. In vitro-transcribed Alu RNA (300 ng in 1 μL) was injected subretinally to induce RPE degeneration (Kaneko, 2011). Various doses of haloperidol (Sigma Aldrich; 1-500 ng in 0.5 μL) or PBS (vehicle) was injected into the vitreous humor 24 h before and immediately after Alu RNA injection. Alternatively, various doses of haloperidol (2-10 μg) were administered via intraperitoneal administration on days 1 through 6 after Alu RNA injection. Animals were euthanized 7 days after Alu RNA injection, and the eyes were enucleated.
RPE health was assessed by immunofluorescence staining of zonula occludens-1 (ZO-1) on RPE flat mounts. Flat mounts were fixed with 2% PFA, stained with rabbit polyclonal antibodies against mouse ZO-1 (Invitrogen), visualized with Alexa Fluor 594 (Invitrogen), and imaged (A1R Nikon). Images were graded as healthy or degenerated in masked fashion as previously described (Kerur, 2018). Proportions of eyes with degeneration were compared using Fisher's exact test.

[2] = patients taking haloperidol (Coryell, 1998); cited from earlier work
dry AMD = assay: Health insurance claims database analysis (PearlDiver Mariner): risk of developing dry AMD by haloperidol exposure; assay type: in vivo, human; details: for Hazard Ratio of developing dry AMD (adjusted hazard ratio): adjusted Cox proportional hazards regression, propensity-score-matched, patients with schizophrenia or Tourette's disorder aged 50 or older
From the text: The retrospective study used claims data from the PearlDiver Mariner database, which contains data on health care claims and medication usage for persons in provider networks over the time period 2010 to the second quarter of 2018.
Patients were included in the analysis if they had continuous enrollment in the plan for at least 1 year and were at least 50 years of age at baseline. Individuals with pre-existing dry AMD (≥1 medical claims prior to diagnosis of schizophrenia or Tourette's disorder) were excluded. Disease claims were identified by International Classification of Diseases (ICD)-9-CM and ICD-10-CM codes.
Exposure to haloperidol—the independent variable—was determined by whether patients filled ≥1 outpatient pharmacy prescriptions for generic or brand versions, either in sole form or as a combination medication, as identified by National Drug Codes.
Time to initial diagnosis of dry AMD was the dependent variable.
Analyses were performed with the use of R software, version 4.2.2 (the R project (www.r-project.org)). To analyze the risk of dry AMD between haloperidol users and haloperidol non-users, an adjusted Cox proportional hazards regression analysis was performed, and the hazard ratio was analyzed by the likelihood ratio test. […] This adjusted model included confounding covariates that influence dry AMD risk: age, sex, smoking, body mass index, and Charlson comorbidity index. Kaplan-Meier survival plots were analyzed by log rank test. Statistical tests were 2-sided. P values <0.05 were considered statistically significant.
To evaluate the robustness of the findings and mitigate any possible residual confounding, we estimated propensity-score models including use of haloperidol and no use of haloperidol. The individual propensities for starting haloperidol treatment were estimated with the use of logistic regression. […] We used the R package MatchIt to perform matching in a 1:1 ratio using greedy nearest neighbor matching. In addition, to control for any residual covariate imbalance, we estimated the relative hazard in the propensity score-matched groups using the multivariable Cox models that included the covariates from the multivariable regression analysis employed for the original unmatched group analyses. Statistical tests were two-sided. P values <0.05 were considered statistically significant.
We performed a retrospective, longitudinal cohort analysis in the PearlDiver Mariner database (comprising 150 million Americans from 2010 to 2018) among patients with schizophrenia or Tourette's disorder (the population that would be exposed to haloperidol or other anti-psychotics) aged 50 or older (the population at risk) to assess the risk of dry AMD.

[3] = test system: IL-1β secretion by THP-1 cells; assay: Inflammasome activation: IL-1β secretion ELISA in LPS and ATP stimulated THP-1 cells; assay type: cell-based, human; details: LPS 125 ng/ml 4 h + ATP 5 mM 30 min, haloperidol pretreatment 1 h, P<0.05 vs vehicle
Protocol: Human THP-1 cells were stimulated with LPS (125 ng/ml) for 4 h and ATP (5 mM) for 30 min. For all experiments, cells were pretreated with haloperidol (1, 10, or 100 μM) for 1 h and again after the activating stimuli. Secreted human […] in the conditioned cell culture media was detected using an ELISA kit (R&D Systems) according to the manufacturer's instructions. Mean and SEM values are presented.
Haloperidol was tested for inhibition of inflammasome activation. Inflammasome activation was assessed in human THP-1 monocytes by measuring IL-1ß secretion via ELISA.

Structure (SMILES): O=C(CCCN1CCC(O)(c2ccc(Cl)cc2)CC1)c1ccc(F)cc1 [haloperidol]
- eyes protected against RPE degeneration ([1]; 5 ng haloperidol intravitreous, 24 h before and immediately after subretinal Alu RNA, assessed day 7): 70%
- protection against RPE degeneration ([1]; daily intraperitoneal injection at 2 μg, 5 μg, or 10 μg, days 1 through 6 after Alu RNA): 70-80%
- dose with maximal protective effect against RPE degeneration ([1]; intravitreous dose-ranging 1 ng to 500 ng): 5 ng
- Alu RNA-induced RPE degeneration (qualitative) ([1]; subretinal Alu RNA, intravitreous or intraperitoneal haloperidol (FIG. 3)): blocked
- serum concentration [2]: exceeding 20 ng/ml
- rate of developing dry AMD (Kaplan-Meier survival analysis) (dry AMD; Mariner database, log-rank test P<0.001): significantly slower rate
- Hazard Ratio of developing dry AMD (adjusted hazard ratio) (dry AMD; Mariner database): 0.747
- Hazard Ratio of developing dry AMD (adjusted hazard ratio) (dry AMD; Mariner database, listed as Haloperidol): 0.7468
- reduced hazard of developing dry AMD (dry AMD; haloperidol exposure vs nonexposure, Mariner, adjusted Cox model): 25%
- IL-1β secretion (inflammasome activation) [3]: reduced; also recorded: inhibits

Source: US20260158016A1, “HALOPERIDOL DERIVATIVES, PHARMACEUTICAL COMPOSITION COMPRISING SAID DERIVATIVES, AND THERAPEUTIC USES THEREOF” (University of Virginia Patent Foundation, priority 2023, published 2026)
